# Values joined by “and” are separate entries in the source; they are usually repeats but may differ in a detail not shown here. Equal entries are not always repeated. Where two headings read alike, the source gives them in different places.
# How the values were obtained:
# [1] = tested on: human multiple myeloma cells; assay: Cell proliferation (Cell TiterGlo) synergy of HDAC inhibitor with bortezomib; assay type: cell-based; conditions: two cultures of human multiple myeloma cells, bortezomib 0, 2.5 nM, 5.0 nM
# Method: FIG. 7. […] Synergistic effects on cell proliferation were determined by varying concentrations of each HDAC inhibitor in the presence of varied concentrations of the proteasome inhibitor, bortezomib. Two cultures of human multiple myeloma cells were used for this study. Data presented are the IC50 data for the HDAC inhibitor studied (first column) in the presence of increasing concentrations of bortezomib (0, 2.5 nM, or 5.0 nM). The measurement of cell proliferation used is the Cell TiterGlo assay (Promega), which uses bioluminescence to report on ATP content in cultured cells.
# [2] = target: T1, HDAC6 (Homo sapiens, UniProt Q9UBN7); assay: HDAC biochemical (homogeneous) assay, inhibitory constants
# T1 construct: endogenous in cells
# T1 sequence (Q9UBN7 1-1215): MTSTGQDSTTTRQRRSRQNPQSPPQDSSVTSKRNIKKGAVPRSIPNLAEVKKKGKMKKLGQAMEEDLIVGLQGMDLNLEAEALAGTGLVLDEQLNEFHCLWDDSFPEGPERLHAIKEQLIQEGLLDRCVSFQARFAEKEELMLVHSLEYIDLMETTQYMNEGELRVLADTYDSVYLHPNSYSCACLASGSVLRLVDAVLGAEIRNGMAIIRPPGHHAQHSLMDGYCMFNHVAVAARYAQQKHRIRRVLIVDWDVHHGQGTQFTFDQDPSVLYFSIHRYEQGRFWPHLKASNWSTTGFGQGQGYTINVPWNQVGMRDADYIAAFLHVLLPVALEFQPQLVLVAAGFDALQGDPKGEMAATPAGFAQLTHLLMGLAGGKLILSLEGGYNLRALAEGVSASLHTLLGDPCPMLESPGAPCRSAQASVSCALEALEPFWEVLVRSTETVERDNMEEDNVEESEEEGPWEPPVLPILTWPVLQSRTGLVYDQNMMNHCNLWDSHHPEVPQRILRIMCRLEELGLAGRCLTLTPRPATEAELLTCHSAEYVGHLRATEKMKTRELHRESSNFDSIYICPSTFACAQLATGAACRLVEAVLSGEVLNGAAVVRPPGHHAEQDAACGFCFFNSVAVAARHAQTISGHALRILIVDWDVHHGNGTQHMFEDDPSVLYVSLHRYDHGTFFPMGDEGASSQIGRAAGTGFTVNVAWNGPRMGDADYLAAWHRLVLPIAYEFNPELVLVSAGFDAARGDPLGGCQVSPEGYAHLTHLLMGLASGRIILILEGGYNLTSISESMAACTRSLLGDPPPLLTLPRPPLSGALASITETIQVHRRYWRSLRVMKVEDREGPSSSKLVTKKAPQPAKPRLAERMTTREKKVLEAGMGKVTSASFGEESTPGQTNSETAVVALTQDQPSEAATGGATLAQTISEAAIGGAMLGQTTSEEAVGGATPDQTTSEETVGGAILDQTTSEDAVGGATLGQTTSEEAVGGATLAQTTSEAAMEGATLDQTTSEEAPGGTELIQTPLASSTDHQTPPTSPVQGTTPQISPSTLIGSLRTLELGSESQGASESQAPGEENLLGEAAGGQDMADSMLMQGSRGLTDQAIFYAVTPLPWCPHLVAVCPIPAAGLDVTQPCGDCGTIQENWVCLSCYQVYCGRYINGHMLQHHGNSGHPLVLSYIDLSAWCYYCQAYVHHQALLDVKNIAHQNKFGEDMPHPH
# Method: FIG. 5. HDAC Biochemical Assay Schema. 7-amino-4-methylcoumarin (7AMC) is linked by an amide bond to acetylated lysine in the context of an isoform-selective substate. Pictured here is a derived substrate for HDACs 1, 2, 3, and 6. HDAC hydrolyzes acetylated lysine, which is then a substrate for rapid trypsin digestion releasing 7AMC (shown in green) which is detected in real time by a fluorescence plate reader. Linear data captured after a pre-incubation phase (30 minutes) provides a kinetic assessment of deacetylase activity.
# FIG. 6. […] Robust assay for HDACs 1, 2, 3, 5, 6, and 8 have been established.
# [3] = Pharmacokinetics of WT-161 in CD-1 mice after intravenous administration (plasma, LC-MS/MS); assay type: in vivo
# Method: WT-III-161 (Wt: 458.55 for free base) was dissolved in 25% DMSO, 25% Cremophor EL, and 50% saline to yield final concentration at 2 mg/mL for intravenous administration (pH=6-7). The solution was clear and light yellow, and the concentration of WT-III-161 in it was confirmed by HPLC method with an accuracy of 116.92% (Table I).
# Study design, animal selection, handling and treatment were in accordance with the Shanghai Medicilon Inc. study protocol (Shanghai Medicilon Inc Study No. BRD0701). Male CD0-1 mice (body weight 23 g to 27 g) were used in this study. Before the pharmacokinetic studies, animals were randomly assigned to the treatment groups (3 animals per timepoint). Ten additional mice were used to collect plasma for calibration curves.
# […] All the samples and the dose formulation were stored at −20° C. until bioanalysis or transportation to sponsor.
# The concentrations of WT-161 in plasma were determined using a high pressure liquid chromatography/mass spectrometry (LC-MS/MS) method.
# The LC system comprised an Aligent liquid chromatograph equipped with an isocratic pump (1100 series), an autosampler (1100 series) and a degasser (1100 series). Mass spectrometric analysis was performed using an API3000 (triple quadrupole) instrument from AB Inc (Canada) with an ESI interface. The data acquisition and control system were created using Analyst 1.4 software from ABI Inc. Acetonitrile and methanol were HPLC grade. All other solvents and chemicals were analytical grade or better.
# Pharmacokinetic software DAS 2.0 (Gaosi Data Analysis Inc., Wuhn, China) was used.
# Chromatographic conditions: ColumnL Synergi Fusion-RP, 4 μm (150 mm×2.0 mm); Mobile phase: 0.1% formic acid:methanol:acetonitrile (5:90:5); Elution rate: 350 μL/min; Column temperature: 25° C.; Injection volume: 2 μL.
# Scan type: positive MRM; Ion Source: Turbo spray; Ionization mode: ESI; Nebulize gas: 8 L/min; Curtain gas: 8 L/min; Collision gas: 4 L/min; Ionspray voltage: 5000 V; Temperature: 500° C.
# Plasma samples (0.1 mL) were transferred to Eppendorff tubes, then 20 μL of methanol, 500 μL IS solutions (50 ng/mL) were added to it. After vortexing for 1 minute and centrifuging for 5 min at 15,000 rpm, 2 μL of supernatant was injected onto the LC-MS/MS.
# The concentration in plasma below the limit of quantitation (LOQ=5 ng/mL) were designated as zero. The pharmacokinetic data analysis was performed using noncompartmental analysis modules in DAS 2.0.
# [4] = target: T1, HDAC6; assay: High content acetylation assay (AcTubulin vs AcHistone) in cultured cells; assay type: cell-based; conditions: dose-range, TDAC activity as surrogate for HDAC6 inhibition
# Method: FIG. 2. High-throughput, high-content, quantitative detection method for identifying HDAC inhibitors. Cells are seeded in 384-well plates (2,000 cells/well) and treated with test compound, fixed, and then stained with Hoechst (nuclei), primary anti-AcTubulin monoclonal antibody and anti-AcHistone polyclonal antibody, then with compatible fluorophore-conjugated secondary antibodies. After automated image acquisition a custom analysis script identifies and masks cells, then derives quantitative fluorescence data from FITC (AcTubulin) and rhodamine (AcHistone) channels (MetaXPress; Molecular Devices).
# FIG. 3. WT-161 Induction of AcTubulin (Red) and AcHistone (Blue) by HCS. As described in FIG. 2, the high content acetylation assay was employed to determine the comparative induction of acetylated histones versus acetylated tubulin across a dose-range of WT-161.
# FIG. 4. […] Dose-response data from FIG. 3 have been used to generate EC50 values of cellular histone and tubulin acetylation effects of WT-161. […] HDAC activity is used to indicate biological activity of proteins mediating histone deacetylation, as this is a cellular assay measuring global effects on acetylation. TDAC activity is a surrogate measurement for HDAC6 inhibition in cultured cells.
# [5] = male, mouse, CD-1 mice, IV 5 mg/kg, plasma
structure (smiles),measurement,setting,value
"O=C(CCCCCCC(=O)Nc1ccc([C@H]2O[C@@H](CSc3nc(-c4ccccc4)c(-c4ccccc4)o3)C[C@@H](c3ccc(CO)cc3)O2)cc1)NO [tubacin, reference compound]",Synergy with bortezomib on cell proliferation,[1],most pronounced synergy
O=C(CCCCCCC(=O)N/N=C/c1ccc(N(c2ccccc2)c2ccccc2)cc1)NO [WT-161],"Inhibitory constant (Ki) for HDAC6, in words",[2],Potent inhibition of HDAC6
same,"Selectivity among HDACs 1, 2, 3, 5, 6, 8, in words",[2],Selective Inhibition of HDAC6
same,"Concentration in plasma, individual mice 1-3","[3]; 0.033 hr post-dose, IV 5 mg/kg, 5 mg/kg",13606.91 ng/mL and 27492.70 ng/mL and 14890.74 ng/mL
same,"Concentration in plasma, individual mice 1-3","[3]; 0.083 hr post-dose, IV 5 mg/kg, 5 mg/kg",6082.36 ng/mL and 8591.87 ng/mL
same,"Concentration in plasma, individual mice 1-3","[3]; 0.25 hr post-dose, IV 5 mg/kg, 5 mg/kg",1762.06 ng/mL and 1336.63 ng/mL
same,"Concentration in plasma, individual mice 1-3","[3]; 0.5 hr post-dose, IV 5 mg/kg, 5 mg/kg",780.44 ng/mL and 1152.36 ng/mL
same,"Concentration in plasma, individual mice 1-3","[3]; 1 hr post-dose, IV 5 mg/kg, 5 mg/kg",122.63 ng/mL and 57.74 ng/mL and 263.97 ng/mL
same,"Concentration in plasma, individual mice 1-3","[3]; 2 hr post-dose, IV 5 mg/kg, 5 mg/kg",87.92 ng/mL and 114.00 ng/mL
same,"Concentration in plasma, individual mice 1-3","[3]; 3 hr post-dose, IV 5 mg/kg, 5 mg/kg",25.12 ng/mL and 9.38 ng/mL and 14.37 ng/mL
same,"Concentration in plasma, individual mice 1-3","[3]; 4 hr post-dose, IV 5 mg/kg, 5 mg/kg",74.08 ng/mL and 20.79 ng/mL and 7.37 ng/mL
same,"Concentration in plasma, individual mice 1-3","[3]; 6 hr post-dose, IV 5 mg/kg, LOQ 5 ng/mL, 5 mg/kg",BLQ and 6.57 ng/mL
same,"Concentration in plasma, individual mice 1-3","[3]; 8 hr post-dose, IV 5 mg/kg, LOQ 5 ng/mL",BLQ
same,"Concentration in plasma, individual mice 1-3","[3]; 24 hr post-dose, IV 5 mg/kg, LOQ 5 ng/mL",BLQ
same,Systemic clearance as percent of mouse hepatic blood flow (5.40 L/hr/kg),"[3]; CD-1 mice, IV bolus 5 mg/kg",30.37%
same,concentration at 0.033 hr,"[3]; male, CD-1, mouse, plasma, iv, 5 mg/kg, 0.033 hr post-dose, IV 5 mg/kg",18700 ng/mL
same,concentration at 0.083 hr,"[3]; male, CD-1, mouse, plasma, iv, 5 mg/kg, 0.083 hr post-dose, IV 5 mg/kg, read-out: Concentration in plasma, Mean",8000 ng/mL
same,concentration at 0.083 hr,"[3]; male, CD-1, mouse, plasma, iv, 5 mg/kg, 0.083 hr post-dose, IV 5 mg/kg, read-out: Concentration in plasma, individual mice 1-3",9330 ng/mL
same,concentration at 0.25 hr,"[3]; male, CD-1, mouse, plasma, iv, 5 mg/kg, 0.25 hr post-dose, IV 5 mg/kg, read-out: Concentration in plasma, Mean",1760 ng/mL
same,concentration at 0.25 hr,"[3]; male, CD-1, mouse, plasma, iv, 5 mg/kg, 0.25 hr post-dose, IV 5 mg/kg, read-out: Concentration in plasma, individual mice 1-3",2190 ng/mL
same,concentration at 0.5 hr,"[3]; male, CD-1, mouse, plasma, iv, 5 mg/kg, 0.5 hr post-dose, IV 5 mg/kg, read-out: Concentration in plasma, Mean",956 ng/mL
same,concentration at 0.5 hr,"[3]; male, CD-1, mouse, plasma, iv, 5 mg/kg, 0.5 hr post-dose, IV 5 mg/kg, read-out: Concentration in plasma, individual mice 1-3",934 ng/mL
same,concentration at 1 hr,"[3]; male, CD-1, mouse, plasma, iv, 5 mg/kg, 1 hr post-dose, IV 5 mg/kg",148 ng/mL
same,concentration at 2 hr,"[3]; male, CD-1, mouse, plasma, iv, 5 mg/kg, 2 hr post-dose, IV 5 mg/kg, read-out: Concentration in plasma, Mean",95.2 ng/mL
same,concentration at 2 hr,"[3]; male, CD-1, mouse, plasma, iv, 5 mg/kg, 2 hr post-dose, IV 5 mg/kg, read-out: Concentration in plasma, individual mice 1-3",83.6 ng/mL
same,concentration at 3 hr,"[3]; male, CD-1, mouse, plasma, iv, 5 mg/kg, 3 hr post-dose, IV 5 mg/kg",16.3 ng/mL
same,concentration at 4 hr,"[3]; male, CD-1, mouse, plasma, iv, 5 mg/kg, 4 hr post-dose, IV 5 mg/kg",34.1 ng/mL
same,concentration at 6 hr,"[3]; male, CD-1, mouse, plasma, iv, 5 mg/kg, 6 hr post-dose, IV 5 mg/kg, BLQ designated as zero, read-out: Concentration in plasma, Mean",4.15 ng/mL
same,concentration at 6 hr,"[3]; male, CD-1, mouse, plasma, iv, 5 mg/kg, 6 hr post-dose, IV 5 mg/kg, LOQ 5 ng/mL, read-out: Concentration in plasma, individual mice 1-3",5.87 ng/mL
same,Cmax,"[3]; male, CD-1, mouse, plasma, iv, 5 mg/kg, CD-1 mice, IV 5 mg/kg, read-out: Cmax",18700 ng/mL
same,Cmax,"[3]; male, CD-1, mouse, plasma, iv, 5 mg/kg, IV, nominal dose 5 mg/kg, read-out: Cmax (at 2 minutes after dosing)",18700 ng/mL
same,Tmax,"[3]; male, mouse, plasma, CD-1 mice, IV 5 mg/kg",1.8 min
same,clearance,"[3]; male, mouse, plasma, CD-1 mice, IV 5 mg/kg, read-out: CLZ (systemic clearance) (converted)",27.3 mL/min/kg
same,MRT inf,"[3]; male, mouse, plasma, CD-1 mice, IV 5 mg/kg, read-out: MRT(0-∞)",19.8 min
same,half-life,"[3]; male, mouse, plasma, CD-1 mice, IV 5 mg/kg, read-out: T1/2z (half-life) (converted)",84.6 min
same,Vd,"[3]; male, mouse, plasma, CD-1 mice, IV 5 mg/kg, read-out: VZ (volume of distribution at terminal phase)",3.33 L/kg
same,AUC(0-inf),[3]; [5],3050 ng·h/mL
same,AUC(0-t),[3]; [5],3020 ng·h/mL
same,Tissue distribution,"[3]; mice, IV 5 mg/kg",distributes well in tissues
same,Volume of distribution as fold of total body water (0.73 L/kg),"[3]; mice, IV 5 mg/kg",4.56 fold
same,Comparative induction of acetylated tubulin versus acetylated histones (cellular selectivity),[4],Selective Inhibition of HDAC6
same,Synergy with bortezomib on cell proliferation,[1],most pronounced synergy

# Reference: patent US9434686B2, “Deacetylase inhibitors and uses thereof” (President and Fellows of Harvard College, priority 2008, dated 2016)
